The values that follow come from ChEMBL document CHEMBL1149805, “Antibacterial activity of a novel series of 3-bromo-4-(1H-3-indolyl)-2,5-dihydro-1H-2,5-pyrroledione derivatives--an extended structure-activity relationship study” (Eur J Med Chem, 2008).

≈ marks a conversion by molar mass, not a printed value. Calls of active or inactive are those of the source. The rule behind the calls is not given here.

Usually logP stands for the decadic logarithm of the partition coefficient of the neutral form, usually between octanol and water. Read a high logP as higher lipophilicity. One may read the MIC as the least concentration at which growth counts as inhibited.

Series [1] is described as follows: Partition coefficient, log P of the compound. The following applies: octanol/water. Format: physicochemical.
Series [2] concerns Mycolicibacterium smegmatis. The series is described as follows: Antibacterial activity against Mycobacterium smegmatis SG987 after 24 hrs by broth microdilution method. Format: functional. The conditions noted are these: for MIC: Mycolicibacterium smegmatis, SG987, 24 h. On the technique in general: In broth dilution the organism is exposed to a series of concentrations in liquid medium.

Series [3] concerns Candida albicans. The series is described as follows: Antibacterial activity against Candida albicans after 24 hrs by broth microdilution method. Format: functional, organism-based.
The test system of series [4] is Staphylococcus aureus. In words: Antibacterial activity against Staphylococcus aureus 134/93 after 24 hrs by broth microdilution method. Format: functional. The following applies: for MIC: Staphylococcus aureus, 134/93, 24 h.
The subject of series [5] is Escherichia coli. In words: Antibacterial activity against Escherichia coli after 24 hrs by broth microdilution method. Format: functional, organism-based.

Molecule `CCCCOc1ccc2[nH]c(-c3ccccc3)c(C3=C(Br)C(=O)NC3=O)c2c1` registered a log partition coefficient (logP) in series [1] of 3.42. For the same molecule, the “-logMIC” value in series [2] is recorded as 4.5; in series [4] it was 6.9. For the same molecule, the MIC is 28.4 µM (≈ 12.5 µg/mL) in series [2] and 0.11 µM (≈ 0.0483 µg/mL) in series [4]. In addition, the result in series [3] and in series [5] was inactive.
Molecule `Cc1ccc(NC(=O)CCCc2[nH]c3ccccc3c2C2=C(Br)C(=O)NC2=O)cc1` came in with a logP in series [1] of 2.56. For the same molecule, the “-logMIC” value in series [2] is 4.6; in series [4] it was 5.8. Besides, the MIC in series [2] came out at 27 µM (≈ 12.6 µg/mL); in series [4], 1.58 µM (≈ 0.737 µg/mL). Besides, the outcome in series [3] and in series [5] was inactive.
`CCCc1ccc2[nH]c(-c3ccccc3)c(C3=C(Br)C(=O)NC3=O)c2c1` registered a lipophilicity (logP) in series [1] of 3.43. For the same molecule, the entries for the “-logMIC” value in series [2] and in series [4] were 5.4 and 6.3, respectively. For the same molecule, the MIC was determined as 3.8 µM (≈ 1.56 µg/mL) in series [2] and 0.5 µM (≈ 0.205 µg/mL) in series [4]. Moreover, the outcome in series [3] and in series [5] was inactive.
In the case of `CCCCc1ccc2[nH]c(-c3cccc(OC)c3)c(C3=C(Br)C(=O)NC3=O)c2c1`, the logP in series [1] was found to be 3.81. Also, the “-logMIC” value in series [2] and in series [4] was 5.5 throughout. Moreover, the figures for the MIC in series [2] and in series [4] were 3.16 µM (≈ 1.43 µg/mL) and 3.4 µM (≈ 1.54 µg/mL), respectively. Further, the result in series [3] and in series [5] was inactive.
